These results are taken from patent US9200318B2, “Reduced inhibition of one-step RT-PCR” (Bio Rad Laboratories, Inc., priority 2007, dated 2015).

Like-named read-outs stand apart in the source and are kept apart here.

This assay deals with reverse transcriptase. As to the method:
Thaw all components, except the reverse transcriptase, at room temperature. Mix gently, but thoroughly, and then centrifuge at 4° C. to collect contents to the bottom of the tube. Chill on ice before using. Centrifuge again briefly at 4° C. if needed.
To a mixture of Taq DNA polymerase, dNTP (dATP, dCTP, dGTP and dTTP), magnesium chloride, stabilizers and SdC, is added a forward primer, a reverse primer, nuclease-free water and a reverse transcriptase. Assemble the reaction cocktail with all required components except sample template (total RNA) and dispense equal aliquots into each reaction tube. Add target sample (RNA template) to each reaction as the final step 5-10 μl volumes.
The reaction mixture is then incubated in a real-time thermal detection system as follows: • cDNA synthesis: 10 min at 50° C. • reverse transcriptase inactivation: 5 min at 95° C. • PCR cycling and detection (30 to 45 cycles): 10 sec at 95° C., followed by 30 sec at 55° C. to 60° C.

`Cc1ccc(C(=O)Nc2ccc(S(=O)(=O)O)c3cc(S(=O)(=O)O)cc(S(=O)(=O)O)c23)cc1NC(=O)c1cccc(NC(=O)Nc2cccc(C(=O)Nc3cc(C(=O)Nc4ccc(S(=O)(=O)O)c5cc(S(=O)(=O)O)cc(S(=O)(=O)O)c45)ccc3C)c2)c1` [suramin]: where the note is “4 ng/μl suramin vs absence”, the “inhibition of reverse transcriptase in one-step RT-PCR” value is “reduces the inhibition of reverse transcriptase” and the “specificity of one-step RT-PCR” value is reported as “significantly improves the specificity of one-step RT-PCR”.
As to “phosphorothioate oligodeoxycytosine [SdC]”, under “0.1, 0.5, 2 and 10 nM SdC”, the “inhibition of reverse transcriptase in one-step RT-PCR” value is “reduces the inhibition of reverse transcriptase” and the “specificity of one-step RT-PCR” value is “significantly improves the specificity of one-step RT-PCR”.
